The values below are quoted from earlier work in patent US20100184765A1, “Protein Kinase Inhibitors and Methods for Using Thereof” (IRM LLC, priority 2007, published 2010).

The data set deals with Flt-1 (Homo sapiens, UniProt P17948). The conditions noted are these: VEGF binding to Flt-1, literature report.
Flt-1, sequence (P17948 27-1338, species assumed): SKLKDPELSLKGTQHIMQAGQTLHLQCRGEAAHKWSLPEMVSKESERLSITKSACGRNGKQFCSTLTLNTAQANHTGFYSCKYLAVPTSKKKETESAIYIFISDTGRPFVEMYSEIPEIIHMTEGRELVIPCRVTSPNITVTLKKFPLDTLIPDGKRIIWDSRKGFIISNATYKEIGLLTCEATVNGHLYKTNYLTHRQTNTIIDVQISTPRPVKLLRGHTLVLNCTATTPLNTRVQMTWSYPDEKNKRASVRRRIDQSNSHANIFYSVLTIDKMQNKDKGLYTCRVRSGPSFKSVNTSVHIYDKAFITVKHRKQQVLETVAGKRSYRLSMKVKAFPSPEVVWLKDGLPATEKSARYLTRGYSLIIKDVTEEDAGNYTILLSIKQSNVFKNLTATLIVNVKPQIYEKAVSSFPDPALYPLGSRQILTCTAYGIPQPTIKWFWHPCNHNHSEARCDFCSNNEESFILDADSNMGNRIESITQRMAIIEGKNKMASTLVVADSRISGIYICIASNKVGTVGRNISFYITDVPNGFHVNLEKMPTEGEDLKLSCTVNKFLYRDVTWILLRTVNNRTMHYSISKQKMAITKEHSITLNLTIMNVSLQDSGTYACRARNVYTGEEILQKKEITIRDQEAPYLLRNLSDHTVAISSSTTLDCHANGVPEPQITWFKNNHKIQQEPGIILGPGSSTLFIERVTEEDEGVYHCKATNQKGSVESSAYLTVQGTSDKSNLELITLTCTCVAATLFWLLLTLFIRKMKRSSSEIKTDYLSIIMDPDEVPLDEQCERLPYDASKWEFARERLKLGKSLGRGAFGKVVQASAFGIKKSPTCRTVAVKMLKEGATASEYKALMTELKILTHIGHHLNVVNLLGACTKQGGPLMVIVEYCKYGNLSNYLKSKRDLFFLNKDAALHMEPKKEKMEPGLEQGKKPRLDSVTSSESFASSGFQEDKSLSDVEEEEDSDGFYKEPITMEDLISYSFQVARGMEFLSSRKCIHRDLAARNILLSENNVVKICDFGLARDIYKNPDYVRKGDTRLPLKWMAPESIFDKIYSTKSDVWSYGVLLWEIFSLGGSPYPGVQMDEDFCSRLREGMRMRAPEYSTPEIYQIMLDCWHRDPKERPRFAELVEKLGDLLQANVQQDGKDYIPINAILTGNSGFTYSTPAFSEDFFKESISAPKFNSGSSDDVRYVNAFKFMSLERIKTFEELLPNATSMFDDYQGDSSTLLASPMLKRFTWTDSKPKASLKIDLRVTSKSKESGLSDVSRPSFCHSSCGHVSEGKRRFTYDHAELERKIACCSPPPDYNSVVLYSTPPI

The Kd is the concentration at which binding is half-saturated. With VEGF, the dissociation constant (Kd) was 0.02 nM.
